Measured values as given in ChEMBL document CHEMBL1201862, “PubChem BioAssay data set” (2004).
Values belong to the compound of their own block, whether it stands above or below them. Active and inactive are the calls of the source.

How the values were obtained:
fMet-Leu-Phe receptor = fMet-Leu-Phe receptor (Homo sapiens, UniProt P21462); test: FPR ligands, dose response (AID 519); format: functional
[1] = molecular target: T1, Histone-lysine N-methyltransferase NSD2 (Homo sapiens, UniProt O96028); format: biochemical
T1 sequence (O96028 whole entry): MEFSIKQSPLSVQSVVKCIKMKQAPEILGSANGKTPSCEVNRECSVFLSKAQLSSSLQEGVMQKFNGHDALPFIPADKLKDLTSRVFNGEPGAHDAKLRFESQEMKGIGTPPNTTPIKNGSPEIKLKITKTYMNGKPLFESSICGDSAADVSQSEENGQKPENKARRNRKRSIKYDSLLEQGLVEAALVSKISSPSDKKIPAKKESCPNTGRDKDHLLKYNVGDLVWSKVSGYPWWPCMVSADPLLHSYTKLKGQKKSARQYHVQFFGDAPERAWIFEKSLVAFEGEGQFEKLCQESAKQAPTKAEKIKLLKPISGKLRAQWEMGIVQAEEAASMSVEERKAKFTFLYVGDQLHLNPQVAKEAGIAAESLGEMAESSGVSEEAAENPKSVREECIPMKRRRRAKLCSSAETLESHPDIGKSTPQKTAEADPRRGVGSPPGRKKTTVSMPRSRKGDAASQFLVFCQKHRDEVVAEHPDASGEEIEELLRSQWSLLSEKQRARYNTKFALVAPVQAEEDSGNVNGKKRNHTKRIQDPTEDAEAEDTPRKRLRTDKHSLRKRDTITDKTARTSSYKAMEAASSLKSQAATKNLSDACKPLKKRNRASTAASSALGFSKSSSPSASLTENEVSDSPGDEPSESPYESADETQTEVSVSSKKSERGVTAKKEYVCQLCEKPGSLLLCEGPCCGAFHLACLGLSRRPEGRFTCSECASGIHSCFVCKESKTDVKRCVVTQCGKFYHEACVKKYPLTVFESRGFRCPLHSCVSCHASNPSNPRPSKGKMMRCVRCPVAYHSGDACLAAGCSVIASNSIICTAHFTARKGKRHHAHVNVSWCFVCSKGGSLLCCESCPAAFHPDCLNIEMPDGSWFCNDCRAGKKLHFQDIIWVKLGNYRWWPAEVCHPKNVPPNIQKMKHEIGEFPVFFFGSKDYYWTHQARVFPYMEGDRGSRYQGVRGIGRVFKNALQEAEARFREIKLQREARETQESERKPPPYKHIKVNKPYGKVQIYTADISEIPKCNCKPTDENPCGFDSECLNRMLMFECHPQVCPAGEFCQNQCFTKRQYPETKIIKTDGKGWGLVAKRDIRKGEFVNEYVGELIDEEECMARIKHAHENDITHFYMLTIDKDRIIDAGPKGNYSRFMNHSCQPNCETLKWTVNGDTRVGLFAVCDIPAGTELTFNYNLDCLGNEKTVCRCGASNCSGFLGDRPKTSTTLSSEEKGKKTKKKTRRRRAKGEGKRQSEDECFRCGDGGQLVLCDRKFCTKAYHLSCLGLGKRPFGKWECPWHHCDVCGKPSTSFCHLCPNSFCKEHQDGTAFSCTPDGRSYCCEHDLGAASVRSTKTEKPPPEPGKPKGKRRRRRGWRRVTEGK

[2] = molecular target: Voltage-gated inwardly rectifying potassium channel KCNH2 (Homo sapiens, UniProt Q12809); settings: Potency;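 also: confirmatory quantitative high-throughput screen measuring inhibition of hERG channel activity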
Voltage-gated inwardly rectifying potassium channel KCNH2, sequence (Q12809 whole entry): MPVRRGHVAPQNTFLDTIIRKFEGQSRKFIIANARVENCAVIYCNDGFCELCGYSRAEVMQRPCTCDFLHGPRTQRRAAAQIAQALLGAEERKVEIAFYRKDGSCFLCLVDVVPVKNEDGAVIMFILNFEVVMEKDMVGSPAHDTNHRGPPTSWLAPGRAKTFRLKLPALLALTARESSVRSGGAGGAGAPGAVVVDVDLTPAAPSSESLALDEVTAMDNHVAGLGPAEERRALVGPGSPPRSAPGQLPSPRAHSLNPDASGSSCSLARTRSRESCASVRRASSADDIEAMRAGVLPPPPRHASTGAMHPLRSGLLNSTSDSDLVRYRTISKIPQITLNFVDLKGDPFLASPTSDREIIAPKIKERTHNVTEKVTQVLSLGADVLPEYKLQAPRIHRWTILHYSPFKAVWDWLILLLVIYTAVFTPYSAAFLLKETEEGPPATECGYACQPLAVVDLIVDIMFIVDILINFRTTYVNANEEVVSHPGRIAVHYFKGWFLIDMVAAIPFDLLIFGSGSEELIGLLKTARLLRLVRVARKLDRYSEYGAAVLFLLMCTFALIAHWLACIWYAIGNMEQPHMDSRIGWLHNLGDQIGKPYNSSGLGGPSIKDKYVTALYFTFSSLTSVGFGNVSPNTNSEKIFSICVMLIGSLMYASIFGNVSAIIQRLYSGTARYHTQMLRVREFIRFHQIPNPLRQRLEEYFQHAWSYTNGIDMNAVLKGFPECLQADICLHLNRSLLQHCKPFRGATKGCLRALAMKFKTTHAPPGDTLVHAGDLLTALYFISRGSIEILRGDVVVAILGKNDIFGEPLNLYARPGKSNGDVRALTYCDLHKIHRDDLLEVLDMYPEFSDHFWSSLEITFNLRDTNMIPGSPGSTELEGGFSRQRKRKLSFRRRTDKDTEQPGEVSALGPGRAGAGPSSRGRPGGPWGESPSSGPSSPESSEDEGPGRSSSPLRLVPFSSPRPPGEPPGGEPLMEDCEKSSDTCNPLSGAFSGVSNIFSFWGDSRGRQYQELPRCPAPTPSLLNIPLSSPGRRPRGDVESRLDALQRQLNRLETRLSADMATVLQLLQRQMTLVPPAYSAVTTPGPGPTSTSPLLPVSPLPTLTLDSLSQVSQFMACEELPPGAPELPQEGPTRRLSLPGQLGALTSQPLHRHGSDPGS

Protein skinhead-1 = molecular target: T2, Protein skinhead-1 (Caenorhabditis elegans, UniProt P34707); format: functional
T2 sequence (P34707 whole entry): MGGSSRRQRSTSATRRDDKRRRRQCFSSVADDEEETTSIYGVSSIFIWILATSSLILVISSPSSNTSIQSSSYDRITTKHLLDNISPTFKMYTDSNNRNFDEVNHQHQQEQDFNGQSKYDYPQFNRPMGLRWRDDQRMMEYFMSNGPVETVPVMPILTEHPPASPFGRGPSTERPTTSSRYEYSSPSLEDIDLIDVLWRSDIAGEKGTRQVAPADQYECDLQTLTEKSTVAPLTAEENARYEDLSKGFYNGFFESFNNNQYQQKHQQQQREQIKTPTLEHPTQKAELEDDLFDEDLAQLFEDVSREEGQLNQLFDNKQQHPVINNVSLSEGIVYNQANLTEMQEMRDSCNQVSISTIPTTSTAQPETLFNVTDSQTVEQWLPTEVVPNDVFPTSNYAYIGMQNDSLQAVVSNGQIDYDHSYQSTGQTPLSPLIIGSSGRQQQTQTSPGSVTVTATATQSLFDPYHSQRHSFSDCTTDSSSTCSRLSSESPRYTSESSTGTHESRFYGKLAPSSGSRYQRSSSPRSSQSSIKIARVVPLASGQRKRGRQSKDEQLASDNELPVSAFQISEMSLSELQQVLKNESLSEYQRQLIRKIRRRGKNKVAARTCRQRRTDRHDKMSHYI

Caspase-6 = molecular target: T3, Caspase-6 (Homo sapiens, UniProt P55212); test: human caspase-6 inhibitors, dose response, biochemical, VEID-R110 fluorescence, cherry-pick (AID 720632)
T3 sequence (P55212 whole entry): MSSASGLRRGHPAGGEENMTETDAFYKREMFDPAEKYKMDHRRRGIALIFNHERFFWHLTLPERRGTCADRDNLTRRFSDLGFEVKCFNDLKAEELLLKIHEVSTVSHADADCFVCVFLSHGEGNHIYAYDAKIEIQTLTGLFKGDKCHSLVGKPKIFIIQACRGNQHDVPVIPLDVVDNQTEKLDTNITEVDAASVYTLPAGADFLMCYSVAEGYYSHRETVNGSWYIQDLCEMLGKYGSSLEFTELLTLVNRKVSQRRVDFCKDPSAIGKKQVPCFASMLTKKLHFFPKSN

[3] = molecular target: Glucose-6-phosphate 1-dehydrogenase (Homo sapiens, UniProt P11413); test: human G6PD enzyme inhibitors, dose response, selectivity assay for P. falciparum G6PD inhibitor project, biochemical, fluorescence (AID 504792); format: functional
Glucose-6-phosphate 1-dehydrogenase, sequence (P11413 whole entry): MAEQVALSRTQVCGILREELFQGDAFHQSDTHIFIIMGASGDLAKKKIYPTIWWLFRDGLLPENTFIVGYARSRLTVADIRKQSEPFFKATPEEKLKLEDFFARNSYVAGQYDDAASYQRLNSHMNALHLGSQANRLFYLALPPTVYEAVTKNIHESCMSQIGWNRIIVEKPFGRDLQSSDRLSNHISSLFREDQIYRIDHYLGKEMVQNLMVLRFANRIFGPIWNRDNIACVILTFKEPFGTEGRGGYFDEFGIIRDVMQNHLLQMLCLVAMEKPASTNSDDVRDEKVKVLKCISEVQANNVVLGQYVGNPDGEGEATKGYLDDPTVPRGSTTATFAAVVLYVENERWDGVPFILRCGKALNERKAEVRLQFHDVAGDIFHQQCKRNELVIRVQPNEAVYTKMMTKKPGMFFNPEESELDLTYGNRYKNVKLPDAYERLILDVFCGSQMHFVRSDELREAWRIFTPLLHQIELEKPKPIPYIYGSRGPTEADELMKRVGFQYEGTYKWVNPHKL

Genome polyprotein = Genome polyprotein (dengue virus type 2, UniProt P29990); test: Dengue-2 NS5 methyltransferase inhibitors, primary screen, biochemical, confirmation dose response (AID 588689); format: functional
Genome polyprotein, sequence (P29990 2492-3391 limits assumed): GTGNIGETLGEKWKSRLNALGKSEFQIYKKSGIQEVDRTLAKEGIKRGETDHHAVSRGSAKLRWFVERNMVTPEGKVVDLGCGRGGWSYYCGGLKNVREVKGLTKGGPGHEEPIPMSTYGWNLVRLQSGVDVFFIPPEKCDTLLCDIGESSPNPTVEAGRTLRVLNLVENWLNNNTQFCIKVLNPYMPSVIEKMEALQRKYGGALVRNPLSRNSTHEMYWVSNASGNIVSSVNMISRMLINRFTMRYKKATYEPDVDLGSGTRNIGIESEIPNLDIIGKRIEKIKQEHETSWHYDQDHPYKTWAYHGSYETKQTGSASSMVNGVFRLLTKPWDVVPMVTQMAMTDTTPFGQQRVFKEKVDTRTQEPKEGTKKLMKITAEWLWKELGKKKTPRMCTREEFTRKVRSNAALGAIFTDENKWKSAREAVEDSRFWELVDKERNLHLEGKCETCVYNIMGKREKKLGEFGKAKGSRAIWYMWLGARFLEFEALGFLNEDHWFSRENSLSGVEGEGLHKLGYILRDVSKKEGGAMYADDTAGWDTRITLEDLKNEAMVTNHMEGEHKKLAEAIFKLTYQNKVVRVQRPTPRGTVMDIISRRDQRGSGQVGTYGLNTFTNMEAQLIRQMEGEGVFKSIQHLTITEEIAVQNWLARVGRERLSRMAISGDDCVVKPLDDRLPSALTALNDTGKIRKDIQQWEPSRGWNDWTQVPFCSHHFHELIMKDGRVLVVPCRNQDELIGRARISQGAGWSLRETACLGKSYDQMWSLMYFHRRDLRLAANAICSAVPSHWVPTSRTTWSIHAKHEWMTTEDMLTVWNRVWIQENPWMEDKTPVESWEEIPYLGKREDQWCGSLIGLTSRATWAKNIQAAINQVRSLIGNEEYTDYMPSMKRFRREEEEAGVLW

Caspase-7 = Caspase-7 (Homo sapiens, UniProt P55210); test: human caspase-7 inhibitors, dose response, selectivity assay for caspase-6 inhibitor project, biochemical, DEVD-R110 fluorescence, cherry-pick (AID 743295)
Caspase-7, sequence (P55210 24-198 limits assumed): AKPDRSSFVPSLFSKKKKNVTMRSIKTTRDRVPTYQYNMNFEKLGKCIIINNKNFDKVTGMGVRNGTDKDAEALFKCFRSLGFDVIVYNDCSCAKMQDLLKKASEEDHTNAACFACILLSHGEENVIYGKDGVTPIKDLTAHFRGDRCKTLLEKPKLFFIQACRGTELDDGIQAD
Caspase-7, sequence (P55210 207-303 limits assumed): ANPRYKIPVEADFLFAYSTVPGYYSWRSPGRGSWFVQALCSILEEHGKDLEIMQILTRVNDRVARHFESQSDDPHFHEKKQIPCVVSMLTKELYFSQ

[4] = molecular target: T4, Sentrin-specific protease 8 (Homo sapiens, UniProt Q96LD8); format: functional;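 also: luminescence read-out of SENP8 inhibition, dose-response confirmation following an ultra-high-throughput screen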
T4 sequence (Q96LD8 whole entry): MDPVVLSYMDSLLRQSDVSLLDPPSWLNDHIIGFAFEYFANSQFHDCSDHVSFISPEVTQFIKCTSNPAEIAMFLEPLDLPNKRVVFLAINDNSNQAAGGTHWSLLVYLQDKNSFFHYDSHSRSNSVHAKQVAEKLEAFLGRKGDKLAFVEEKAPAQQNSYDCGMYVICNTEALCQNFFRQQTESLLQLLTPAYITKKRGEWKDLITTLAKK

[5] = molecular target: T5, Oxysterols receptor LXR-beta (Homo sapiens, UniProt P55055); format: functional, cell-based;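 also: agonist activity at LXR measured by a cell-based luminescence readout across a dose range, run as a counterscreen for daf-12 agonists; HEK293 cells with Gal4-LXR fusion and GAL4-driven luciferase reporter; potency for activation of Gal4-LXR reporter so compounds are agonists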
T5 sequence (P55055 whole entry): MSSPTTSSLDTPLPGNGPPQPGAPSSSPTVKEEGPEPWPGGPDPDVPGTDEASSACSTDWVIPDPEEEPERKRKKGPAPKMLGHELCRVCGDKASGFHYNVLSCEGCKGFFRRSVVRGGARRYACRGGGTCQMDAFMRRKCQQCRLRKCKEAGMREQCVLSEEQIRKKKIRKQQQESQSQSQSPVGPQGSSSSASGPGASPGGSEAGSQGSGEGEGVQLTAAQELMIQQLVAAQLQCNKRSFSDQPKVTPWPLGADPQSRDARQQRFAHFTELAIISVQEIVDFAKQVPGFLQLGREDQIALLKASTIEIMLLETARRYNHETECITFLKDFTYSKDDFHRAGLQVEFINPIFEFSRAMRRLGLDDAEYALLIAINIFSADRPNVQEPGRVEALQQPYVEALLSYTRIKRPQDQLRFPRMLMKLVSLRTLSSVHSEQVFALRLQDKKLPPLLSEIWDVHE

[6] = molecular target: T6, Sentrin-specific protease 6 (Homo sapiens, UniProt Q9GZR1); format: functional;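 also: Luminescence-based dose-response confirmatory assay of SENP6 inhibition, following up an ultra-high-throughput screen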
T6 sequence (Q9GZR1 whole entry): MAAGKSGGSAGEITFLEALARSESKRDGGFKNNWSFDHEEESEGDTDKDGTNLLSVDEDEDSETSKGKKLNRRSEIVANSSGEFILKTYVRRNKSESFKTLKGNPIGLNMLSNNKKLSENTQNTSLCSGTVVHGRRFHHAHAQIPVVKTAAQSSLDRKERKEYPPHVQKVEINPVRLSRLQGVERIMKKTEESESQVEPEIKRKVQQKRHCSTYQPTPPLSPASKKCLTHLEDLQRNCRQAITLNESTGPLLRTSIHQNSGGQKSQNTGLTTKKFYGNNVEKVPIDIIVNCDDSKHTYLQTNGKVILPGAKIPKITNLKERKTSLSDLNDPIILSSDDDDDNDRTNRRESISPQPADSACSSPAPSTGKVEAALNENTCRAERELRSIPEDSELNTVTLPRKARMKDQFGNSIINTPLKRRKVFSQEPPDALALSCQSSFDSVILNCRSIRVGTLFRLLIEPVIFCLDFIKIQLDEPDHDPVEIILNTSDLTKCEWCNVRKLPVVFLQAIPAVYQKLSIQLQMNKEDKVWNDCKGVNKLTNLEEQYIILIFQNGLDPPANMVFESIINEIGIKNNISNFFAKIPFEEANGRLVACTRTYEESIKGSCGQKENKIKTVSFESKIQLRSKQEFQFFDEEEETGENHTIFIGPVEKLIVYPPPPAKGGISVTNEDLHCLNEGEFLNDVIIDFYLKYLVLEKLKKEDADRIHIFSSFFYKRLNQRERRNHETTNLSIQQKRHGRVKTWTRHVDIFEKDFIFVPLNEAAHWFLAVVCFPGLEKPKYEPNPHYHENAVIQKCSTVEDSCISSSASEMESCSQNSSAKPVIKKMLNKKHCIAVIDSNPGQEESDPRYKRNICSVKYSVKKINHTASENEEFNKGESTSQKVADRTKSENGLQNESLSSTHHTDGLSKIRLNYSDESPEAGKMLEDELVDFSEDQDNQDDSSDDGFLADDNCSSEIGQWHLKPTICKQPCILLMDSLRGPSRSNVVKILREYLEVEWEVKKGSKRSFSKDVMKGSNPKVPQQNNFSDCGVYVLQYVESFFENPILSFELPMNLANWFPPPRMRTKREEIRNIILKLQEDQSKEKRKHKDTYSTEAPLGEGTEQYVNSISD

[7] = molecular target: T7, Sentrin-specific protease 7 (Homo sapiens, UniProt Q9BQF6); format: functional;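 also: Luminescence-based dose-response confirmation of ultra-high-throughput screening hits, measuring inhibition of SENP7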
T7 sequence (Q9BQF6 whole entry): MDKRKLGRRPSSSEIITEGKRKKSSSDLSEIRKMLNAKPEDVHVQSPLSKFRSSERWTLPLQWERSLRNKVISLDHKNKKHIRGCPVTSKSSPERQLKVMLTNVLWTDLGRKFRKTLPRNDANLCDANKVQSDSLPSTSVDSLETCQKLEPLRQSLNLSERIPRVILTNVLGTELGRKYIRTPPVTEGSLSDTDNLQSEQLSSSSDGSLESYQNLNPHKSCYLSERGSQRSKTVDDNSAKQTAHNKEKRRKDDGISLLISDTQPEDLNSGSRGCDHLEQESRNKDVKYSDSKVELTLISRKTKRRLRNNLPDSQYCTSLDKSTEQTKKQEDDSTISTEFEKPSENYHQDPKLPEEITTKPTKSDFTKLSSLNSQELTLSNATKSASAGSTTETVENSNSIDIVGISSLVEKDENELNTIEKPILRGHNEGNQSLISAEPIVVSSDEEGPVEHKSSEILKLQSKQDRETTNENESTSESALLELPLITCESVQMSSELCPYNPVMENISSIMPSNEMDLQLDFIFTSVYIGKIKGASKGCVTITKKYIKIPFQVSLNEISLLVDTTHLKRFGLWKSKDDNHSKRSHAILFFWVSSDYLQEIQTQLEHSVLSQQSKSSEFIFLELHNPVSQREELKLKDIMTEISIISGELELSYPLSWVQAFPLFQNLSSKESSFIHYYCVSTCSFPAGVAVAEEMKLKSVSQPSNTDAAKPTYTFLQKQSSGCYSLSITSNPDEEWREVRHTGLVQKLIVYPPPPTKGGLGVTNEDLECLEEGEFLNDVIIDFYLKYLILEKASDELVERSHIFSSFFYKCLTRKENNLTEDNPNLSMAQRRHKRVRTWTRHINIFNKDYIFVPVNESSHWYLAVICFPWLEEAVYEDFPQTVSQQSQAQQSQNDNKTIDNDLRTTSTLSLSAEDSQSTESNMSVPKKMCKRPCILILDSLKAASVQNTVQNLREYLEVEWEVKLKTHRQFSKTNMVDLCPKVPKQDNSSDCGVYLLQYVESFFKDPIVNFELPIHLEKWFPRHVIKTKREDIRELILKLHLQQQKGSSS

Caspase-3 = molecular target: T8, Caspase-3 (Homo sapiens, UniProt P42574); format: functional;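 also: Dose-response selectivity test against caspase-3 for candidate inhibitors of sentrin-specific proteases (SENPs)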
T8 sequence (P42574 whole entry): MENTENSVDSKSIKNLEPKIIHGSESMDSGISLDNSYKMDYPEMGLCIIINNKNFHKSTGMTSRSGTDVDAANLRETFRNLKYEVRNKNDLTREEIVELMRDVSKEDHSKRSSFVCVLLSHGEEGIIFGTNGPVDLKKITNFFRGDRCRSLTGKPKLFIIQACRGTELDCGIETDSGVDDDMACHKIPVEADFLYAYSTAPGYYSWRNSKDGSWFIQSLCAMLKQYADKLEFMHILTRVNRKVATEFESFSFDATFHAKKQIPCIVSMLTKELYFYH

fMet-Leu-Phe receptor, sequence (P21462 whole entry): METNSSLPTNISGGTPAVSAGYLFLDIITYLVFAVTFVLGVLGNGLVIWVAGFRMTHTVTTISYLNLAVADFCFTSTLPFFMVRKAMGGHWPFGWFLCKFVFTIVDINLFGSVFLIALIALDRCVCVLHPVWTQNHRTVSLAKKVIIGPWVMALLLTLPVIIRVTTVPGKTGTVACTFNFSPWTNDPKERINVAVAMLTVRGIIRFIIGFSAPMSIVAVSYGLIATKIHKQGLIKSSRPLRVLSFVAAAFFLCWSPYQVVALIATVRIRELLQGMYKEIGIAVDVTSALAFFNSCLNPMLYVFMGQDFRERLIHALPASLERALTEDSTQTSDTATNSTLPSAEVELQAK

Ki (fMet-Leu-Phe receptor): > 66.7 µM (inactive)
Structure (SMILES): Cc1ccc(C(=O)C2=C(O)C(=O)N(CC(C)O)C2c2ccc(N(C)C)cc2)cc1 (centres undefined)

Ki (fMet-Leu-Phe receptor): > 66.7 µM (inactive)
Structure (SMILES): C=CCOc1cccc(C2C(C(=O)c3ccco3)=C(O)C(=O)N2CCN2CCOCC2)c1 (centres undefined)

Structure (SMILES): Oc1cc2c(cc1O)[C@H]1c3ccc(O)c(O)c3OC[C@@]1(O)C2
AC50 [1]: 1.53 µM (active)
AC50 [2]: 22.4 µM (inconclusive)
IC50 (Protein skinhead-1): > 100 µM (inactive)
AC50 (Caspase-6): 3.95 µM (active)
IC50 [3]: 67.6 µM (inactive)
IC50 (Genome polyprotein): 22.5 µM (active)
AC50 (Caspase-7): 68.5 µM (active)

EC50 [5]: > 67.5 µM (inactive)
IC50 [6]: 18.7 µM (active)
IC50 [7]: 5.6 µM (active)
IC50 (Caspase-3): 18.5 µM (active)
Structure (SMILES): Cc1ccc(/C=N/N=C/c2ccc(C)s2)s1
IC50 [4]: 21.9 µM (active)
